# Laboratory results as given in patent publication US20220380378A1 (ESSA Pharma, Inc., priority 2021, published 2022).
# Target: T1, androgen receptor (AR) (Homo sapiens, UniProt P10275, T878A)
# T1 sequence (P10275 1-920 T878A): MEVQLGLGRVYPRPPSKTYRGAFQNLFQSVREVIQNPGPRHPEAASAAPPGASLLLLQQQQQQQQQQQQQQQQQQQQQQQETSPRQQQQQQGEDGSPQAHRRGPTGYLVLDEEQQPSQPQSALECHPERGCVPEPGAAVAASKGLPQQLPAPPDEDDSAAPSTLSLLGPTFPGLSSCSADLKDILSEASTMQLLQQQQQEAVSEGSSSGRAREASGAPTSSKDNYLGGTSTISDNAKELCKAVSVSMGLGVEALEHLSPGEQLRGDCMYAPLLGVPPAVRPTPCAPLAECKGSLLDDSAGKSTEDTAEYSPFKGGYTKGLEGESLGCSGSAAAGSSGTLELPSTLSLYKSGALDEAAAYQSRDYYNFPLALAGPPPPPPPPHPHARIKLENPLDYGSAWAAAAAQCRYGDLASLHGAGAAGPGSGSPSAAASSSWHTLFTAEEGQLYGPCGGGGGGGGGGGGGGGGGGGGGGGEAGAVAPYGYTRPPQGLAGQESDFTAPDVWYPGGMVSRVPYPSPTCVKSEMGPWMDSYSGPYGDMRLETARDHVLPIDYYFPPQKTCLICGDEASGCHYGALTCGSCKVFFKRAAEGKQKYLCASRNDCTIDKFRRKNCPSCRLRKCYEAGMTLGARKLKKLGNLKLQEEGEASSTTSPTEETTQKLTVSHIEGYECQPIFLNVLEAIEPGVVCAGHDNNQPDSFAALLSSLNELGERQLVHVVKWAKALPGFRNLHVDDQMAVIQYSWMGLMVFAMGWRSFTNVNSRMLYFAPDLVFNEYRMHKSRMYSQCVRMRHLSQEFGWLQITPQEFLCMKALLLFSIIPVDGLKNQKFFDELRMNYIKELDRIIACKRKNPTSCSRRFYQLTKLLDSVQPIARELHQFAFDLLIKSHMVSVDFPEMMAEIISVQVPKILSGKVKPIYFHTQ
# Assay: Androgen-induced PSA (6.1 kb)-luciferase reporter assay in LNCaP cells (R1881 1 nM)
# Assay type: cell-based
# Parameters: endogenous in cells; host or cells: LNCaP
# Conditions: 24 h, read-out: PSA-Luc IC50 Range
# Method: The PSA (6.1 kb)-luciferase reporter contains functional AREs (androgen response elements) to which AR binds in response to androgen to induce luciferase activity. LNCaP cells were transiently transfected with the PSA (6.1 kb)-luciferase reporter for 24 h, and then pretreated with vehicle (DMSO) or indicated concentration of representative compounds for one hour prior to the addition of synthetic androgen, R1881 (1 nM). After 24 h of incubation with R1881, the cells were harvested, and relative luciferase activities were determined (FIG. 1). To determine the IC50, treatments were normalized to vehicle control activity induced by R1881 (Table 2).
# Luciferase Assay: Cells were lysed using Passive Lysis Buffer (Promega) and then collected into V-bottom 96-well tissue culture plates. Lysates were centrifuged at 4° C. for 5 minutes at 3000 rpm. To measure luminescence of LNCaP cell lysates the Firefly Luciferase Assay System (Promega) was employed, according to manufacturer's protocol. Relative luminescence units (RLU) in cell lysates were detected for 10 seconds using Promega GloMax-Multi Detection Luminometer (Promega). Values were normalized to protein content. GraphPad Prism graphing software was used to calculate IC50 values.
# Statistical analyses were performed using GraphPad Prism (Version 6.01 for Windows; La Jolla, Calif., USA). Comparisons between treatment and control groups were compared using Two-Way ANOVA with post-hoc Dunnett's and Tukey's tests. Differences were considered statistically significant at P values less than 0.05.
row,Compound,IC50 [nM]
1,CS(=O)(=O)Nc1nccc(COc2ccc(-n3ccc4c(Cl)c(OCCCl)c(C#N)cc43)cc2)n1 [Compound A26],> 2000
2,"CS(=O)(=O)Nc1nccc(COc2ccc3c(c2)CCN3c2cc(Cl)c(OCCCl)c(C#N)c2)n1 [Compound A30, N-(4-(((1-(3-chloro-4-(2-chloroethoxy)-5-cyanophenyl)indolin-5-yl)oxy)methyl)pyrimidin-2-yl)methanesulfonamide]",> 2000
3,"CS(=O)(=O)Nc1nccc(COc2ccc3c(c2)C(c2cc(Cl)c(OCCCl)c(C#N)c2)CC3)n1 (stereo not drawn) [Compound A31, N-(4-(((3-(3-chloro-4-(2-chloroethoxy)-5-cyanophenyl)-2,3-dihydro-1H-inden-5-yl)oxy)methyl)pyrimidin-2-yl)methanesulfonamide]",> 2000
4,CS(=O)(=O)Nc1nccc(COc2ccc3c(c2)nnn3-c2cc(Cl)c(OCCCl)c(C#N)c2)n1 [Compound A40],> 2000
5,CS(=O)(=O)N1CCC(COc2ccc3c(ccn3-c3cc(Cl)c(OCCCl)c(C#N)c3)c2)CC1 [Compound A55],> 2000
6,CS(=O)(=O)N[C@H]1CC[C@H](COc2ccc3c(ccn3-c3cc(Cl)c(OCCCl)c(C#N)c3)c2)CC1 [Compound A58],> 2000
7,CS(=O)(=O)Nc1nccc(COc2ccc3c(cnn3-c3cc(Cl)c(OCCCl)c(C#N)c3)c2)n1 [Compound A60],> 2000
8,CS(=O)(=O)Nc1nccc(COc2ccc3c(-c4cc(Cl)c(OCCCl)c(C#N)c4)cnn3c2)n1 [Compound A64],> 2000
9,CC(C)(c1ccc(OCc2ccnc(NS(C)(=O)=O)n2)cc1)c1cc(Cl)c(NCCCl)c(C#N)c1 [Compound A66],500 to 2000
10,CC(C)CNc1ncc(C(C)(C)c2ccc(OCc3ccnc(NS(C)(=O)=O)n3)cc2)cc1Cl [Compound A67],> 2000
11,CC(C)COc1c(Cl)cc(-n2ccc3cc(OCc4ccnc(NS(C)(=O)=O)n4)ccc32)cc1C#N [Compound A71],> 2000
12,CS(=O)(=O)CCOc1c(Cl)cc(-n2ccc3cc(OCc4ccnc(NS(C)(=O)=O)n4)ccc32)cc1C#N [Compound A72],> 2000
13,CS(=O)(=O)Nc1nccc(COc2ccc3c(ccn3-c3cc(Cl)c(OCC4COC4)c(C#N)c3)c2)n1 [Compound A73],> 2000
14,CS(=O)(=O)Nc1nccc(COc2ccc(-n3ccc4c(C#N)c(OCCCl)c(C#N)cc43)cc2)n1 [Compound A75],> 2000
15,Cn1nc(-c2cc(Cl)c(OCCCl)c(C#N)c2)c2ccc(OCc3ccnc(NS(C)(=O)=O)n3)cc21 [Compound A77],> 2000
16,CS(=O)(=O)Nc1cc(NCc2ccc3c(ccn3-c3cc(Cl)c(OCCCl)c(C#N)c3)c2)ccn1 [Compound A78],> 2000
17,CS(=O)(=O)Nc1ccn(CCc2ccc3c(ccn3-c3cc(Cl)c(OCCCl)c(C#N)c3)c2)c(=O)c1 [Compound A81],> 2000
18,CS(=O)(=O)Nc1cnn(CCc2ccc3c(ccn3-c3cc(Cl)c(OCCCl)c(C#N)c3)c2)c1 [Compound A84],> 2000
19,CS(=O)(=O)Nc1nccc(COc2ccc3c(c2)COC3c2cc(Cl)c(OCCCl)c(C#N)c2)n1 (stereo not drawn) [Compound A85],> 2000
20,CC(CO)(c1ccc(OCc2ccnc(NS(C)(=O)=O)n2)cc1)c1cc(Cl)c(OCCCl)c(C#N)c1 (stereo not drawn) [Compound A89],> 2000

# Now from value to compound:
row,IC50 [nM],Compound
1,< 500,CS(=O)(=O)Nc1nccc(COc2ccc3c(c2)CC[C@@H]3c2cc(Cl)c(OCCCl)c(C#N)c2)n1 [A35(R)]
2,500 to 2000,CS(=O)(=O)Nc1nccc(COc2ccc3c(c2)CC[C@H]3c2cc(Cl)c(OCCCl)c(C#N)c2)n1 [A35(S)]
3,> 2000,CC(C)(c1ccc(OCc2ccnc(NS(C)(=O)=O)n2)cc1)c1cc(Cl)c(-c2cccc(Cl)c2)c(C#N)c1 [Compound A1]
4,> 2000,"CC(C)(c1ccc(OCc2ccnc(NS(C)(=O)=O)n2)cc1)c1cc(Cl)c(-c2ccc(Cl)cc2)c(C#N)c1 [Compound A2, N-(4-((4-(2-(2,4′-dichloro-6-cyano-[1,1′-biphenyl]-4-yl)propan-2-yl)phenoxy)methyl)pyrimidin-2-yl)methanesulfonamide]"
5,> 2000,CS(=O)(=O)Nc1ncc(COc2ccc3c(ccn3-c3cc(Cl)c(OCCCl)c(C#N)c3)c2)c(N)n1 [Compound A10]
6,> 2000,CS(=O)(=O)Nc1nccc(COc2ccc3c(-c4cc(Cl)c(OCCCl)c(C#N)c4)ncnc3c2)n1 [Compound A18]
7,500 to 2000,N#Cc1cc(-n2ccc3cc(OCc4coc(S(N)(=O)=O)c4)ccc32)cc(Cl)c1OCCCl [Compound A20]
8,500 to 2000,CS(=O)(=O)Nc1nccc(COc2ccc3c(ccn3-c3cc(C#N)c(OCCCl)c(C(F)(F)F)c3)c2)n1 [Compound A21]
9,> 2000,CS(=O)(=O)Nc1nccc(COc2ccc3c(ccn3-c3cc(Cl)c(OCC(Cl)(Cl)Cl)c(C#N)c3)c2)n1 [Compound A22]
10,500 to 2000,CC(C)(c1ccc(OCc2ccnc(NS(C)(=O)=O)n2)cc1)c1cc(C#N)c2ccc(Cl)cc2c1 [Compound A25]
11,500 to 2000,CS(=O)(=O)Nc1nccc(COc2ccc(-n3ccc4c(C#N)c(OCCCl)c(Cl)cc43)cc2)n1 [Compound A27]
12,500 to 2000,"CS(=O)(=O)Nc1nccc(COc2ccc3c(c2)OCCN3c2cc(Cl)c(OCCCl)c(C#N)c2)n1 [Compound A28, N-(4-(((4-(3-chloro-4-(2-chloroethoxy)-5-cyanophenyl)-3,4-dihydro-2H-benzo[b][1,4]oxazin-7-yl)oxy)methyl)pyrimidin-2-yl)methanesulfonamide]"
13,500 to 2000,"CS(=O)(=O)Nc1ncc(COc2ccc3c(ccn3-c3cc(Cl)c(OCCCl)c(C#N)c3)c2)cn1 [Compound A29, N-(5-(((1-(3-chloro-4-(2-chloroethoxy)-5-cyanophenyl)-1H-indol-5-yl)oxy)methyl)pyrimidin-2-yl)methanesulfonamide]"
14,< 500,CC(C)(c1ccc(OCc2ncc(NS(C)(=O)=O)nc2N)cc1)c1cc(Cl)c(OCCCl)c(C#N)c1 [Compound A43]
15,500 to 2000,CC(C)(c1ccc(OCc2cccc(S(C)(=O)=O)c2)cc1)c1cc(Cl)c(OCCCl)c(C#N)c1 [Compound A47]
16,500 to 2000,CC(C)(c1ccc(OCc2cncc(NS(C)(=O)=O)c2)cc1)c1cc(Cl)c(OCCCl)c(C#N)c1 [Compound A49]
17,500 to 2000,CC(C)(c1ccc(OCc2cccc(S(N)(=O)=O)c2)cc1)c1cc(Cl)c(OCCCl)c(C#N)c1 [Compound A50]
18,500 to 2000,CS(=O)(=O)n1cc(COc2ccc3c(ccn3-c3cc(Cl)c(OCCCl)c(C#N)c3)c2)cn1 [Compound A52]
19,500 to 2000,N#Cc1cc(-n2ccc3cc(OCc4c[nH]nn4)ccc32)cc(Cl)c1OCCCl [Compound A54]
20,500 to 2000,CS(=O)(=O)N1CCCC(COc2ccc3c(ccn3-c3cc(Cl)c(OCCCl)c(C#N)c3)c2)C1 (stereo not drawn) [Compound A56]
21,< 500,CS(=O)(=O)Nc1nccc(COc2ccc3c(-c4cc(Cl)c(OCCCl)c(C#N)c4)csc3c2)n1 [Compound A61]
22,500 to 2000,CS(=O)(=O)Nc1nccc(COc2ccc3c(ccn3-c3cc(Cl)c(OCC(F)(F)F)c(C#N)c3)c2)n1 [Compound A70]
23,500 to 2000,COCc1c(F)cc(-n2ccc3cc(OCc4ccnc(NS(C)(=O)=O)n4)ccc32)cc1Cl [Compound A74]
24,< 500,CC(=O)Nc1cnc(COc2ccc(C(C)(C)c3cc(Cl)c(OCCCl)c(C#N)c3)cc2)c(NS(C)(=O)=O)n1 [Compound A76]
25,500 to 2000,CC(C)(c1ccc(OCc2ccnc(NS(C)(=O)=O)n2)cc1)c1cc(Cl)c(N2CCC(CO)CC2)c(C#N)c1 [Compound A90]
